Assays:
platelet = experiment: Platelet-increasing activity (platelet count, Fonio direct method); format: in vivo, mice; details: for increase of the number of platelet versus control: 1 mg/0.5 ml./body i.p., 10 mins. after administration, versus Ringer-Locke control
Procedure: Platelet-Increasing Activity: • The compound having the formula shown in Example 1 was intraperitoneously administered to ddY female ten(10) mice as one grouping at the dose of 1 mg/0.5 ml./body in the form of a Ringer-Locke solution (1 mg. of the compound was dissolved in a Ringer-Locke solution). One eyeball was isolated 10 mins. after the administration to bleed. Blood was collected and the number of platelet was measured according to a direct method (Fonio original method), details of which are described in Dsch. Z. Schr. Chir., vol. 117, page 176 (1912).
As a control group, a Ringer-Locke solution was intraperitoneously administered at the dose of 0.5 ml/body for comparison.
Activity on Platelet-Increase: • The procedure similar to Example 3 was repeated except that the compound of Example 3 was used instead of the compound of Example 1.

Male mice = experiment: Hemostatic test (bleeding time after wounding the tail vein); format: in vivo; details: for rate of shortening bleeding time (shortened rate): summary in the description; for Bleeding Time (mean±S.E.) After Administration / Shortened Time (mean±S.E.) / Shortened Rate: Table 7; for Bleeding Time (mean±S.E.) After Administration / Shortened Time (mean±S.E.): mean of five tests, dose not stated; for Shortened Rate: shortened time relative to bleeding time before administration
Procedure: The present invention will be described in more detail with reference to the examples below, in which hemostatic test was performed as follows:
Male mice weighing 15 to 20 g. were intraperitoneously given with 0.5 ml. of a Locke solution. The mice-.were holded on a mouse holder 10 minutes after the administration, where the left vein of the tail at the middle of the tail (3 to 4 cm. from the root of the tail) was wounded with a knife to bleed. A filter paper was softly touched with the incised wound at the interval of 30 seconds and observation was made if blood was transferred onto the filter paper. Time until blood was not transferred onto the filter paper was measured and was made a bleeding time for control
Subsequently, a test compound dissolved in 0.5 ml. of a Locke solution was intraperitoneously administered to the same mice. The mice were holded onto a mouse holder 10 minutes after the administration. The right vein at the middle of the tail was wounded with a knife and a bleeding time was measured as in control described above.
A difference in bleeding time between the control and the test compound was made a shortened time for bleed-stopping.

[1] = Toxicity / neurotoxic activity (no method described)

Row | Compound | increase of the number of platelet versus control (platelet; ddY female mice) | Number of Platelet (platelet; Table 6, same procedure as Table 4 (1 mg/0.5 ml./body i.p., ddY female mice)) | rate of shortening bleeding time (shortened rate) (Male mice) | neurotoxic side effect / neurotoxic activity (in words) [1] | Number of Platelet (platelet; Table 4, 1 mg/0.5 ml./body i.p. in Ringer-Locke solution, ddY female mice, 10 per group, blood 10 mins. after administration) | Bleeding Time (mean±S.E.) After Administration (Male mice) | Shortened Time (mean±S.E.) (Male mice) | Shortened Rate (Male mice) | increase of the number of platelet as compared to a control (platelet; dose not stated) | toxicity relative to that of the oxalyl derivative ([1]; compared with L-N-β-oxalyl-α, β-diaminopropionic acid)
1 | N[C@H](CNC(=O)C(=O)O)C(=O)O [Compound of Example 3, D-N-β-Oxalyl- α, β -diaminopropionic acid] | ~24% | 68.0 ± 7.35 10,000/mm^3 | 35% | slighter in neurotoxic activity | – | – | – | – | – | –
2 | N[C@@H](CNC(=O)C(=O)O)C(=O)O [compound of Example 1, L-N-β-oxalyl-α,β-diaminopropionic acid] | about 30% | – | 35% | does not exhibit neurotoxic side effect | 69.6 ± 6.31 10,000/mm^3 | 354 ± 45 s | 192 ± 36 s | 35.16% | – | –
3 | NC[C@H](N)C(=O)O [α,β-diaminopro-pionic acid, L-α, β-diaminopropionic acid] | – | – | 44% | – | – | 306 ± 37 s | 240±33 p<0.05 second | 43.96% | about 17% | about 1/5
